Experiments:
[1] = test system: human papillomavirus (HPV) lesions; conditions: cited from earlier work; for rate of local relapses: direct application on moles
skin incisions = assay: healing tests (skin incisions); format: in vivo, albino rabbits of the New Zealand lineage; conditions: daily topical treatment of incisions
From the text: Thirty-six healthy adult albino rabbits of the New Zealand lineage weighing between 1.250 and 1.700 Kg were used for the healing tests. The animals were shaved and housed in individual cages at room temperature, in 12-hour light-dark cycles, with PURINA animal food and water ad libitum. The rabbits were anesthetized with local administration of lidocaine hydrochloride and inhalation of sulfuric ether. Four incisions were made on the skin of each rabbit until the subcutaneous layer was reached. A distance of 3 cm was maintained between each incision. The animals were divided into three groups. The group A, control, received NaCl 0.9% solution during the 14 days of treatment period. Group B was treated with rifamycin and group C received the ethanolic extract of barbatiman barks, resuspended in water (0.1 g mL^−1). The incisions remained open, and the rabbits were treated from the first day of the incision until the 14th day after the incision was made. On the 7th day, pieces were removed from ⅓ of the rabbits and part of the liver for histological analysis, and the animals were then killed. On 14th day, the remaining rabbits were killed, and the pieces and part of the liver were removed for histological analysis. […]

CC(C)Cn1cnc2c(N)nc3ccccc3c21 [Imiquimod]
cure rate ([1]; condyloma acuminata of external and perianal genitalia): 50-56%
patients with headache, myalgia, and flu-like symptoms ([1]; in vivo): less than 5%

O=C(O)C(Cl)Cl [dichloroacetic acid, dichloroacetic]
rate of local relapses [1]: around 30%

CO[C@H]1/C=C/O[C@@]2(C)Oc3c(C)c(O)c4c(O)c(cc(O)c4c3C2=O)NC(=O)/C(C)=C\C=C\[C@H](C)[C@H](O)[C@@H](C)[C@@H](O)[C@@H](C)[C@H](OC(C)=O)[C@@H]1C [rifamycin]
purulent secretion (skin incisions): present purulent secretion

O=C(O)C(Cl)(Cl)Cl [trichloroacetic acid, trichloroacetic acids]
rate of local relapses [1]: around 30%

From patent US9023405B2, “Pharmaceutical composition using stryphnodendron extracts for treating HPV infections” (priority 2010, dated 2015)
